The subject of series [1] is human semen/spermatozoa. Put plainly: DNA fragmentation of spermatozoa incubated with/without CO, Halo Sperm G2 Kit (Example 1). The following applies: two-compartment capsule, 15 mg Mo-CORM, 90 minutes at 25-35° C.; vs samples not contacted with CO (woCO=1); FIG. 11. It is filed as cell-based. The method, then:
(§1) In this example, the capsule (18-22 mm in length and 6-8 mm diameter) loaded with 15 mg of CO-releasing molecules (Mo-CORM) and 150 μl of an aqueous FeCl3 solution (583.3 mg/ml) was used for the preservation of a 0.7 mL to about 2.9 mL sample in a standard 15 mL Falcon tube.
(§2) Between 1.46 mL and 5.7 mL human semen/spermatozoa were collected from healthy males of between 25 and 50 years of age in 100 mL sample vials on site. Samples were then divided into two equal fractions each for subsequent incubation with CO (wCO) and without CO (woCO). In order to estimate the spermatozoa concentration in the samples and to establish an initial baseline for each sample, a routine spermiogram was performed before samples were transferred to gas-tight 15 mL Falcon tubes. Samples were incubated at 25-35° C. for 90 minutes with and without an activated capsule system in a closed container. […] The samples were then analyzed for total motility, progressive motility, static oxidation-reduction potential, and for DNA fragmentation.
To determine DNA fragmentation a count-based microscopy assay was performed. For this spermatozoa samples were diluted using MHM-C (Multipurpose Handling Medium-Complete, FujiFilm, IrvineScientific) to a maximum of 20×E6 spermatozoa per mL and analyzed using a Halo Sperm G2 Kit (Halotech, Madrid, Spain). […] At least 300 spermatozoa were then analyzed using a bright field microscope. […]

The subject of series [2] is human semen/spermatozoa. Put plainly: Static oxidation-reduction potential (sORP) of spermatozoa incubated with/without CO, MiOXSYS (Example 1). The class given is cell-based. The following applies: two-compartment capsule, 15 mg Mo-CORM, 90 minutes at 25-35° C.; vs samples not contacted with CO (woCO=1); FIG. 10. The method, then:
as §1
Between 1.46 mL and 5.7 mL human semen/spermatozoa were collected from healthy males of between 25 and 50 years of age in 100 mL sample vials on site. Samples were then divided into two equal fractions each for subsequent incubation with CO (wCO) and without CO (woCO). In order to estimate the spermatozoa concentration in the samples and to establish an initial baseline for each sample, a routine spermiogram was performed before samples were transferred to gas-tight 15 mL Falcon tubes. Samples were incubated at 25-35° C. for 90 minutes with and without an activated capsule system in a closed container. During this incubation period liquefaction took place naturally. The samples were then analyzed for total motility, progressive motility, static oxidation-reduction potential, and for DNA fragmentation.
A Male Infertility Oxidative System (MiOXSYS, Englewood, CO) was used to determine static oxidation-reduction potential (sORP) levels. 30 μL of the sperm samples were transferred to the sample application port on a MiOXSYS sensor and analyzed for 2 minutes. […]

Series [3] deals with human semen/spermatozoa. Put plainly: Progressive motility of spermatozoa incubated with/without CO, CASA (Example 1). It is filed as cell-based. The following applies: two-compartment capsule, 15 mg Mo-CORM, 90 minutes; vs spermatozoa not contacted with CO. The protocol: as §1
as §2, with “tubes.” for “tubes. Samples were incubated at 25-35° C. for 90 minutes with and without an activated capsule system in a closed container.”
Total motility, progressive motility and concentration of the samples were assessed using a CEROS II (Hamilton Thorne, Beverly, MA) computer assisted sperm analysis (CASA) system. 6 μL of a sperm sample diluted 1:1 with Multipurpose Handling Medium-Complete (MHM-C, FujiFilm/IrvineScientific, Santa Ana, CA) was measured and the concentration and level of mobility (total and progressive motility) was assessed.

Series [4] relates to Human sperm. Briefly: Static oxidation-reduction potential (sORP) of sperm treated with single-chamber receptacles, MiOXSYS (Example 2). The class given is cell-based. As to conditions: vs untreated, results expressed in mV/10^6 sperm/mL, FIG. 12. The method, then: Example 2 illustrates the improvement of spermatozoan viability parameters (namely, oxidation-reduction potential) in response to different carbon monoxide (CO) incubation durations. Sperm form the same subject was either treated with carbon monoxide or left untreated, as “untreated” control. Treatments with CO varied in duration (60, 90, 180, or 270 min).
In this example, sperm samples were treated with either one, three, or six receptacles/capsules, each loaded with 5 mg Mo-CORM (corresponds to 0.44 mL CO) for 60 to 270 mins, or left untreated for the same amount of time.
Human sperm was collected from healthy volunteers in 100 mL specimen containers. Afterwards, the ejaculate was split into equal parts and filled into 15 mL gas tight falcon tubes, with one of the samples being exposed to one or more activated receptacles/capsules. Then, both samples were analyzed for static oxidation-reduction potential (sORP) via MiOXSYS after a predetermined time.
An oxidative male infertility measuring System (MiOXSYS, Englewood, CO) was used to determine static oxidation-reduction potential (sORP) levels following manufacturer's specifications. 30 μL of sample were transferred to the sample application port onto a MiOXSYS sensor and analyzed for 2 minutes. The results were expressed in milli Volt (mV) and normalized to the seminal sperm concentration (mV/10^6 sperm/mL).

Series [5] can be described thus: Carbon monoxide release from the receptacle after combining main substance and activation substance. The class given is physicochemical. The method, then:
Carbon monoxide (CO) release was 1.30 mL, 0.95 mL, 0.44 mL, and 0.23 mL corresponding to 15 mg, 10 mg, 5 mg, and 2.5 mg of the main substance 42 (“Mo-CORM”), respectively.
Carbon monoxide (CO) release ranged from 0.95 mL to 0.34 mL corresponding to 50 μL to 10 μL of the activation substance 44 (“FeCl”), respectively.

`[C-]#[O+]` [CO, carbon monoxide]: in series [1], the “Relative DNA fragmentation (wCO / woCO)” value was “reduced”. The “Relative oxidation-reduction-potential (sORP wCO / sORP woCO)” value in series [2] is recorded as “trend to be lower”. The “progressive motility of spermatozoa” value in series [3] is given as “improvement”. Besides, the “oxidation-reduction potential (sORP) of treated gametes” value in series [4] (subject 38_7, contacted with carbon monoxide for 60 min) was “drastic reduction”; in series [4] (subject 42_1, contacted with carbon monoxide for 90 min), “drastic reduction”.
For the molecule “trisodiumtricarbonyl-[tris(isocyanoethylacetate)]molybdenum [Mo-CORM]”, the “released amount/volume of carbon monoxide (CO) from the receptacle” value came to 0.23 mL in series [5] (2.5 mg of the main substance (Mo-CORM), FIG. 9A); 0.44 mL in series [5] (5 mg of the main substance (Mo-CORM), FIG. 9A); 0.95 mL in series [5] (10 mg of the main substance (Mo-CORM), FIG. 9A); 1.30 mL in series [5] (15 mg of the main substance (Mo-CORM), FIG. 9A); 0.34 mL in series [5] (10 μL of the activation substance (FeCl), FIG. 9B); 0.95 mL in series [5] (50 μL of the activation substance (FeCl), FIG. 9B).

For the origin of these results see patent publication US20260069629A1, “RECEPTACLE, DEVICE FOR RELEASING CARBON MONOXIDE, TREATMENT SYSTEM, SET FOR TREATING LIVING CELLS, METHOD OF TREATING A MAMMAL, AND CARBON MONOXIDE” (Julius-Maximilians-Universität Würzburg, in Vertretung des …, priority 2022, published 2026).
